Experimental data reported in US20100183585A1, “METHODS AND COMPOSITIONS FOR TREATING TUMORS AND METASTASES THROUGH THE MODULATION OF LATEXIN” (University of Kentucky Research Foundation, priority 2008, published 2010).

System: latexin
Assay: latexin mRNA by quantitative real-time PCR in leukemic cell lines after 5-aza-2′-deoxycytidine treatment
Type: cell-based, human
Conditions: for latexin gene expression: 2 μM for 4 days
Procedure: To measure the expression of latexin in leukemic cells, quantitative real-time PCR was performed. Identical numbers (200,000) of cells were used for total RNA extraction using RNeasy Mini kit (QIAGEN, Valencia, Calif.) according to the manufacture's instructions. Isolated total RNA was reverse transcribed into cDNA using random hexamers in TaqMan® reverse transcription solution (PN N8080234), and stored at −20° C. In real-time PCR reactions, primer and probe mix for human latexin were purchased from Applied Biosystems (Foster city, CA, USA). TaqMan® human glyceraldehyde-3-phosphate dehydrogenase (GAPDH) was served as an endogenous control to normalize latexin expression. PCR reactions were set up as per manufacturer's instructions using TaqMan® universal PCR master mix (PN 4304437). Analyses of gene expression were performed in single reporter assays in an ABI PRISM 7700 sequence detection system (PE Biosystems, Foster city, CA, USA).
To examine the correlation of promoter hypermethylation and latexin gene expression, leukemia cell lines shown to have a lack of or decrease in latexin expression were subjected to 5-aza-2′-deoxycytidine treatment. Cells were plated with 2 ? M 5-aza-2′-deoxycytidine (Sigma-Aldrich; St. Louis, Mo.), and incubated for 4 days. The medium and the drug were replaced every 24 hours, and cells were harvested for RNA and DNA extraction 4 days after treatment.

Nc1ncn([C@H]2C[C@H](O)[C@@H](CO)O2)c(=O)n1 [5-aza-2′-deoxycytidine]
latexin gene expression (HL-60, KG-1, SupB15 lines): significantly up-regulated | latexin gene expression (K562, Molt4, CCRF-CEM, J45.01, Jurkat, U937 (completely lacked latexin expression prior to treatment)): reactivated | latexin expression (human leukemia and lymphoma cell lines treated with the demethylating reagent): re-initiated or up-regulated
